According to patent publication US20250049970A1, “DLL3 TARGETING PEPTIDES AND CONSTRUCTS THEREOF” (MARIANA ONCOLOGY INC., priority 2023, published 2025):
*1 amine or outer side, *2 acyl side, *3 side chain or, on linkers, in order; H or OH if unused. Where a SMILES comes first, the peptide text is derived from it. Bridges are numbered along the chain shown (N, C = ends). [ ]: non-standard residue; d: D form. The star is where a group is joined. ξ: configuration not given here. Ala(piperidin-4-yl) = O=C([C@H](CC1CCN([*:3])CC1)N[*:1])[*:2]; DOTA = O=C(O)CN1CCN(CC(=O)O)CCN(CC(=O)*)CCN(CC(=O)O)CC1; Phe(4-CF3) = N[C@@H](Cc1ccc(C(F)(F)F)cc1)C(=O)O; Trp(7-aza) = N[C@@H](Cc1c[nH]c2ncccc12)C(=O)O; NMeW = CN[C@@H](Cc1c[nH]c2ccccc12)C(=O)O; 2Nal = N[C@@H](Cc1ccc2ccccc2c1)C(=O)O; tBuAla = CC(C)(C)C[C@H](N)C(=O)O; ξIle = CC[C@H](C)C(N)C(=O)O; Nle = CCCC[C@H](N)C(=O)O; CH2 = C([*:1])[*:2]

molecular target: T1, DLL3 (Homo sapiens, UniProt Q9NYJ7); test: SPR KD, biotinylated human DLL3 on streptavidin chip (Table 8); set-up: biotin (biotinylated); conditions: biotinylated human DLL3 on streptavidin sensor chip, 25° C., 1:1 binding model; read-out: SPR KD
T1 sequence (Q9NYJ7 27-618): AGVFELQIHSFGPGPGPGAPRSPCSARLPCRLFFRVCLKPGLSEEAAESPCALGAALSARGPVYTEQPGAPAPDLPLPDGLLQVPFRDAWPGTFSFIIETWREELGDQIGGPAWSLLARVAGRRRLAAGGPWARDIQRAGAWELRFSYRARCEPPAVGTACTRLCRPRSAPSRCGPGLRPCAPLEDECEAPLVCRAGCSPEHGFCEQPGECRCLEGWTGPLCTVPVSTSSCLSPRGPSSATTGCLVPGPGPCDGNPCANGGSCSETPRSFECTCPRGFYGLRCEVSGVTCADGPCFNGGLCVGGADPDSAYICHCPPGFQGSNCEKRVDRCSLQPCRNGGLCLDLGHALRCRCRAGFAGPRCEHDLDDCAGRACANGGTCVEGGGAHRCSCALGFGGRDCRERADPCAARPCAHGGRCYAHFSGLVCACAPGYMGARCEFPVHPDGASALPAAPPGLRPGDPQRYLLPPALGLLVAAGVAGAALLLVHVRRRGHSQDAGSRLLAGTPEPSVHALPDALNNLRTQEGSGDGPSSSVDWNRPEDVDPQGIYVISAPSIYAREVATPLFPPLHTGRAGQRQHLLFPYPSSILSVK
Description: Biotinylated target ligand human DLL3 was immobilized on a streptavidin sensor chip. A reference surface was set up for nonspecific binding and refractive index changes. […] Sensorgram curves were fitted with 1:1 binding model, and affinity and kinetic parameters were obtained using Biacore Insight evaluation 4.0. software.

| SMILES | Kd |
| --- | --- |
| CC(=O)N[C@@H](Cc1c[nH]c2ccccc12)C(=O)N[C@H](C(=O)N[C@H](C(=O)N[C@H]1CSSC[C@@H](C(=O)N[C@@H](Cc2c[nH]c3ccccc23)C(=O)N2CCC[C@H]2C(N)=O)NC(=O)[C@H](CC(=O)O)NC(=O)[C@H](CCCCNC(=O)CN2CCN(CC(=O)O)CCN(CC(=O)O)CCN(CC(=O)O)CC2)NC(=O)[C@H](Cc2ccc3ccccc3c2)NC(=O)[C@H](CC(N)=O)NC(=O)C(CN2CCOCC2)NC1=O)C(C)(C)C)[C@@H](C)O (stereo partly drawn) [compound 309, Ac-W-T-(Tbg)-C(3)-[3-(1-morpholinyl)-Ala]-N-(2Nal)-Lys(DOTA)-D-C(3)-W-P-CONH2] | < 0.001 µM |
| CC[C@H](C)[C@H](NC(=O)[C@@H](NC(=O)[C@H](Cc1c[nH]c2ccccc12)NC(C)=O)[C@@H](C)O)C(=O)N[C@H]1CSSC[C@@H](C(=O)N[C@@H](Cc2c[nH]c3ccccc23)C(=O)N2CCC[C@H]2C(=O)O)NC(=O)[C@H](CC(=O)O)NC(=O)[C@H](Cc2c[nH]cn2)NC(=O)[C@H](Cc2c[nH]c3ccccc23)N(C)C(=O)[C@H](CC(N)=O)NC(=O)[C@H](CC(N)=O)NC1=O [compound 386, Ac-W-T-I-C(3)-N-N-(NmeW)-H-D-C(3)-W-P-CONH2] (Ac-WTICNN[NMeW]HDCWP-OH; disulfide 4-10) | 0.1 to 0.3 µM |
| CCC(C)(C)[C@H](NC(=O)[C@@H](NC(=O)[C@H](Cc1c[nH]c2ccccc12)NC(C)=O)[C@@H](C)O)C(=O)N[C@H]1CSSC[C@@H](C(=O)N[C@@H](Cc2c[nH]c3ccccc23)C(=O)N2CCC[C@H]2C(N)=O)NC(=O)[C@H](CC(=O)O)NC(=O)[C@H](CCCCNC(=O)CN2CCN(CC(=O)O)CCN(CC(=O)O)CCN(CC(=O)O)CC2)NC(=O)[C@H](Cc2ccc3ccccc3c2)NC(=O)[C@H](CC(N)=O)NC(=O)C(CN2CCOCC2)NC1=O (single isomer, unassigned) [compound 306, Ac-W-T-(α-tert-amylGly)-C(3)-[3-(1-morpholinyl)-Ala]-N-(2Nal)-Lys(DOTA)-D-C(3)-W-P-CONH2] | < 0.001 µM |
| CC[C@H](C)[C@H](NC(=O)[C@@H](NC(=O)[C@H](Cc1c[nH]c2ccccc12)NC(C)=O)[C@@H](C)O)C(=O)N[C@H]1CSSC[C@@H](C(=O)N[C@@H](Cc2c[nH]c3ncccc23)C(=O)N2CCC[C@H]2C(N)=O)NC(=O)[C@H](CC(=O)O)NC(=O)[C@H](Cc2c[nH]cn2)NC(=O)[C@H](Cc2c[nH]c3ccccc23)NC(=O)[C@H](CC(N)=O)NC(=O)[C@H](CC(N)=O)NC1=O [compound 51, Ac-W-T-I-C(3)-N-N-W-H-D-C(3)-(7Aza-W)-P-CONH2] (Ac-WTICNNWHDC[Trp(7-aza)]P-NH2; disulfide 4-10) | 0.001 to 0.01 µM |
| CC[C@H](C)[C@H](NC(=O)[C@H](C)NC(=O)[C@H](Cc1c[nH]c2ccccc12)NC(=O)[C@H](CCSC)NC(C)=O)C(=O)N[C@H]1CSSC[C@@H](C(=O)N[C@@H](Cc2c[nH]c3ccccc23)C(=O)N2CCC[C@H]2C(N)=O)NC(=O)[C@H](CC(=O)O)NC(=O)[C@H](Cc2cnc[nH]2)NC(=O)[C@H](Cc2c[nH]c3ccccc23)NC(=O)[C@H](CC(N)=O)NC(=O)[C@H](CC(N)=O)NC1=O [compound 13, Ac-M-W-(L-Ala)-I-C(3)-N-N-W-H-D-C(3)-W-P-CONH2] (Ac-MWAICNNWHDCWP-NH2; disulfide 5-11) | 0.01 to 0.1 µM |
| CC[C@H](C)[C@H](NC(=O)[C@@H](NC(=O)[C@H](Cc1c[nH]c2ccccc12)NC(C)=O)[C@@H](C)O)C(=O)N[C@H]1CSSC[C@@H](C(=O)N[C@@H](Cc2c[nH]c3ccccc23)C(=O)N2CCC[C@H]2C(=O)N[C@H](CCCCNC(=O)CN2CCN(CC(=O)O)CCN(CC(=O)O)CCN(CC(=O)O)CC2)C(N)=O)NC(=O)[C@H](CC(=O)O)NC(=O)[C@H](Cc2cnc[nH]2)NC(=O)[C@H](Cc2ccc3ccccc3c2)NC(=O)[C@H](CC(N)=O)NC(=O)[C@H](CCCCNC(=O)CN2CCN(CC(=O)O)CCN(CC(=O)O)CCN(CC(=O)O)CC2)NC1=O [compound 247] (Ac-WTICK(DOTA)N[2Nal]HDCWP[dK](DOTA)-NH2; disulfide 4-10) | < 0.001 µM |
| CCCC[C@H](NC(C)=O)C(=O)N[C@@H](Cc1c[nH]c2ccccc12)C(=O)N[C@H](C(=O)N[C@H](C(=O)N[C@H]1CSSC[C@@H](C(=O)N[C@@H](Cc2c[nH]c3ccccc23)C(=O)N2CCC[C@H]2C(N)=O)NC(=O)[C@H](CC(=O)O)NC(=O)[C@H](Cc2cnc[nH]2)NC(=O)[C@H](Cc2c[nH]c3ccccc23)NC(=O)[C@H](CC(N)=O)NC(=O)[C@H](CC(N)=O)NC1=O)[C@@H](C)CC)[C@@H](C)O [compound 441, Ac-(L-Nle)-W-T-I-C(3)-N-N-W-H-D-C(3)-W-P-CONH2] (Ac-[Nle]WTICNNWHDCWP-NH2; disulfide 5-11) | 0.01 to 0.1 µM |
| CC[C@H](C)[C@H](NC(=O)[C@@H](NC(=O)[C@H](Cc1c[nH]c2ccccc12)NC(C)=O)[C@@H](C)O)C(=O)N[C@H]1CSSC[C@@H](C(=O)N[C@@H](Cc2c[nH]c3ccccc23)C(=O)N2CCC[C@H]2C(N)=O)NC(=O)[C@H](CC(=O)O)NC(=O)[C@H](Cc2c[nH]cn2)NC(=O)[C@H](Cc2c[nH]c3ncccc23)NC(=O)[C@H](CC(N)=O)NC(=O)[C@H](CC(N)=O)NC1=O [compound 33, Ac-W-T-I-C(3)-N-N-(7Aza-W)-H-D-C(3)-W-P-CONH2] (Ac-WTICNN[Trp(7-aza)]HDCWP-NH2; disulfide 4-10) | 0.01 to 0.1 µM |

Continued, values first:

| Kd | SMILES |
| --- | --- |
| < 0.001 µM | CC[C@H](C)C(NC(=O)[C@@H](NC(=O)[C@H](Cc1c[nH]c2ccccc12)NC(C)=O)[C@@H](C)O)C(=O)N[C@H]1CSSC[C@@H](C(=O)N[C@@H](Cc2c[nH]c3ccccc23)C(=O)N2CCC[C@H]2C(=O)N[C@H](CCCCNC(=O)CN2CCN(CC(=O)O)CCN(CC(=O)O)CCN(CC(=O)O)CC2)C(N)=O)NC(=O)[C@H](CC(=O)O)NC(=O)[C@H](Cc2cnc[nH]2)NC(=O)[C@H](Cc2ccc3ccccc3c2)NC(=O)[C@H](CCCCNC(=O)CN2CCN(CC(=O)O)CCN(CC(=O)O)CCN(CC(=O)O)CC2)NC(=O)[C@H](CC(N)=O)NC1=O (stereo partly drawn) [compound 248, Ac-W-T-I-C(3)-N-Lys(DOTA)-(2Nal)-H-D-C(3)-W-P-[D-Lys(DOTA)]-NH2] (Ac-WT[ξIle]CNK(DOTA)[2Nal]HDCWP[dK](DOTA)-NH2; disulfide 4-10) |
| 0.01 to 0.1 µM | CC[C@H](C)[C@H](NC(=O)[C@@H](NC(=O)[C@H](Cc1ccc(C(F)(F)F)cc1)NC(C)=O)[C@@H](C)O)C(=O)N[C@H]1CSSC[C@@H](C(=O)N[C@@H](Cc2c[nH]c3ccccc23)C(=O)N2CCC[C@H]2C(N)=O)NC(=O)[C@H](CC(=O)O)NC(=O)[C@H](Cc2cnc[nH]2)NC(=O)[C@H](Cc2c[nH]c3ccccc23)NC(=O)[C@H](CC(N)=O)NC(=O)[C@H](CC(N)=O)NC1=O [compound 215, Ac-(4CF3-F)-T-I-C(3)-N-N-W-H-D-C(3)-W-P-CONH2] (Ac-[Phe(4-CF3)]TICNNWHDCWP-NH2; disulfide 4-10) |
| 0.001 to 0.01 µM | CC[C@H](C)[C@H](NC(=O)[C@@H](NC(=O)[C@H](Cc1c[nH]c2ccccc12)NC(=O)[C@H](C)NC(C)=O)[C@@H](C)O)C(=O)N[C@H]1CSSC[C@@H](C(=O)N[C@@H](Cc2c[nH]c3ccccc23)C(=O)N2CCC[C@H]2C(N)=O)NC(=O)[C@H](CC(=O)O)NC(=O)[C@H](Cc2cnc[nH]2)NC(=O)[C@H](Cc2c[nH]c3ccccc23)NC(=O)[C@H](CC(N)=O)NC(=O)[C@H](CC(N)=O)NC1=O [compound 11, Ac-(L-Ala)-W-T-I-C(3)-N-N-W-H-D-C(3)-W-P-CONH2] (Ac-AWTICNNWHDCWP-NH2; disulfide 5-11) |
| < 0.001 µM | CC(=O)N[C@@H](Cc1c[nH]c2ccccc12)C(=O)N[C@H](C(=O)N[C@@H](CC(C)(C)C)C(=O)N[C@H]1CSCSC[C@@H](C(=O)N[C@@H](Cc2c[nH]c3ccccc23)C(=O)N2CCC[C@H]2C(N)=O)NC(=O)[C@H](CC(=O)O)NC(=O)[C@H](CCCCNC(=O)CN2CCN(CC(=O)O)CCN(CC(=O)O)CCN(CC(=O)O)CC2)NC(=O)[C@H](Cc2ccc3ccccc3c2)NC(=O)[C@H](CC(N)=O)NC(=O)[C@H](CC2CCNCC2)NC1=O)[C@@H](C)O [compound 94] (Ac-WT[tBuAla]C[Ala(piperidin-4-yl)]N[2Nal]K(DOTA)DCWP-NH2; linker 4-10 via CH2) |
| 0.1 to 0.3 µM | CC[C@H](C)[C@H](NC(=O)[C@@H](NC(=O)[C@H](Cc1c[nH]c2ccccc12)NC(=O)[C@H](CCSC)NC(C)=O)[C@@H](C)O)C(=O)N[C@H]1CSSC[C@@H](C(=O)N[C@@H](Cc2c[nH]c3ccccc23)C(=O)N2CCC[C@H]2C(N)=O)NC(=O)[C@H](CC(=O)O)NC(=O)[C@@H](C)NC(=O)[C@H](Cc2c[nH]c3ccccc23)NC(=O)[C@H](CC(N)=O)NC(=O)[C@H](CC(N)=O)NC1=O [compound 72] (Ac-MWTICNNW[dA]DCWP-NH2; disulfide 5-11) |
